Test results from PMC9077470 (RSC Advances, 2018).
In brackets after ≈: the same amount, converted by molar mass.

Key:
[1] = Partition coefficients in n-octanol/phosphate buffer (pH 7.4); type: physicochemical; conditions: means ± SD, n = 3
Description: The phosphate buffer and octanol were mutually saturated at 20–22 °C before use. Samples were dissolved in the aqueous phase and the n-octanol/phosphate buffer mixtures were shaken for 24 h to reach a distribution equilibrium. The volumes of each phase were chosen so that the solute concentration in the aqueous phase, before and after distribution, could readily be measured using HPLC method. The partition coefficients (P) were calculated from the following equation: [drawing 1] where Ci and Cw represent the solute concentrations in the aqueous buffer phase before and after distribution, respectively, Vw represents the volume of the aqueous phase, and Vo is the volume of the octanol phase.[16]

[2] = system: SOD, MDA, GSH, GSH-Px in colonic tissues; assay: TNBS-induced colitis: levels of SOD, MDA, GSH and GSH-Px in colonic tissues; type: in vivo, mice; conditions: vs TNBS group, p < 0.01
Description: Colitis was induced according to the previous study.[18,19] Briefly, after 12 h of fasting, mice were anesthetized with intraperitoneal pentobarbital sodium (35 mg kg^-1) before the induction of colitis. 0.1 mL of 50% (v/v) ethanol contained 2.5% (v/v) TNBS was instilled into the colon 3.5-4 cm from the anus by a gavage needle. The mice were kept in a head-down position for 30 s to prevent leakage of the intracolonic instillation. Mice in the control group received normal saline instead of TNBS solution, a physical mixture of 5-ASA and sodium butyrate was used as the positive control. […] The treatments were given once daily for 5 continuous days starting 24 hours after the induction of colitis. Colon tissue samples were homogenized with normal saline, the homogenate (10%, w/w) was centrifuged at 13 000 rpm for 15 min, and the resulting supernatant was diluted to 1% (w/w) for further assay. The protein levels of the colon homogenate were detected by a BCA protein assay kit. Then the activities of SOD and GSH-Px, and the levels of MDA and GSH of samples in each group were measured by the assay kits according to the provider's instructions.

[3] = system: TNBS-induced experimental colitis; assay: TNBS-induced colitis: disease activity index (DAI); type: in vivo, mice; conditions: vs positive control (5-ASA + sodium butyrate)
Description: Colitis was induced according to the previous study.[18,19] Briefly, after 12 h of fasting, mice were anesthetized with intraperitoneal pentobarbital sodium (35 mg kg^-1) before the induction of colitis. 0.1 mL of 50% (v/v) ethanol contained 2.5% (v/v) TNBS was instilled into the colon 3.5-4 cm from the anus by a gavage needle. The mice were kept in a head-down position for 30 s to prevent leakage of the intracolonic instillation. Mice in the control group received normal saline instead of TNBS solution, a physical mixture of 5-ASA and sodium butyrate was used as the positive control. […] The treatments were given once daily for 5 continuous days starting 24 hours after the induction of colitis. DAI is ranged from 0 to 4 and it is the sum of scores given for body weight loss, stool consistency and presence or absence of fecal blood. The fecal occult blood of mice was evaluated by the ο-tolidine method.[22] A small amount of feces samples were smeared on a white plate. 2-3 drops of ο-tolidine solution (10 g L^-1, dissolved in acetic acid) were added into samples and mixed evenly. Then 2-3 drops of 3% H2O2 solution were added into the mixture, meanwhile, start the time and observe immediately. Scored as: normal, weak positive, green to light green developing over 2 min; +, positive, greenish-blue to deep green developing within 1 min; ++, positive, blue to bluish-green developing within 5-20 s; +++, very strong positive, intense blue color developing immediately.[23]

[4] = In vivo incubation in the colon of rats; conditions: injected into tied rat colon, 6 h
Description: 6 hours later, rats were sacrificed and their colon contents were separated and homogenized in 40 mL of phosphate buffer (pH 7.4). The homogenate was sonicated for 5 min and centrifuged at 13 000 rpm for 5 min, then 0.2 mL of the supernatant was collected and mixed with 0.8 mL of methanol. Finally, samples were centrifuged, filtered and analyzed by HPLC. The residual contents of each prodrug in colon contents were calculated, and the hydrolysis ratio was calculated by the following equation: [drawing 2] where Wr is the residual amount of prodrugs in the colon contents and Wi is the initial amount of prodrugs that administered to rats.

[5] = system: MPO activity in colonic tissues; assay: TNBS-induced colitis: MPO activity in colonic tissues; type: in vivo, mice
Description: Colitis was induced according to the previous study.[18,19] Briefly, after 12 h of fasting, mice were anesthetized with intraperitoneal pentobarbital sodium (35 mg kg^-1) before the induction of colitis. 0.1 mL of 50% (v/v) ethanol contained 2.5% (v/v) TNBS was instilled into the colon 3.5-4 cm from the anus by a gavage needle. The mice were kept in a head-down position for 30 s to prevent leakage of the intracolonic instillation. Mice in the control group received normal saline instead of TNBS solution, a physical mixture of 5-ASA and sodium butyrate was used as the positive control. […] The treatments were given once daily for 5 continuous days starting 24 hours after the induction of colitis. […] Samples were freeze-thawed three times, after which sonication was repeated. Homogenates were then centrifuged at 13 000 rpm for 30 min and MPO was extracted from the resulting supernatant.[25] MPO activity was measured by the assay kit according to its provider's instructions.

[6] = In vitro incubation with stomach contents of rats; type: in vitro ADME; conditions: rat stomach contents homogenate, pH 1.2, 37 °C, after 2 h of incubation
Description: (§1) After anesthetized with diethyl ether, rats were sacrificed and their contents of stomach and small intestine were collected and homogenized respectively, the homogenate was diluted with buffer solution (pH 1.2 for stomach contents, pH 6.8 for small intestine contents) to 20% (w/v). […] After 0.25, 0.5, 1.0, 1.5, 2.0, 3.0 and 4.0 h of incubation, 200 μL of samples were collected and replaced with the same volume of blank homogenate, then samples were centrifuged at 13 000 rpm for 5 min, filtered with membrane filter, and analyzed by HPLC. The residual contents of each prodrug in homogenate were calculated and the hydrolysis curves were drawn.

[7] = system: TNBS-induced experimental colitis; assay: TNBS-induced colitis: body weight, survival rates, overall effect; type: in vivo, mice; conditions: TNBS colitis mice; Ols-DB as enema, others i.g.
Description: Colitis was induced according to the previous study.[18,19] Briefly, after 12 h of fasting, mice were anesthetized with intraperitoneal pentobarbital sodium (35 mg kg^-1) before the induction of colitis. 0.1 mL of 50% (v/v) ethanol contained 2.5% (v/v) TNBS was instilled into the colon 3.5-4 cm from the anus by a gavage needle. The mice were kept in a head-down position for 30 s to prevent leakage of the intracolonic instillation. Mice in the control group received normal saline instead of TNBS solution, a physical mixture of 5-ASA and sodium butyrate was used as the positive control. […] The treatments were given once daily for 5 continuous days starting 24 hours after the induction of colitis. After the induction of colitis, the body weight of each mice was recorded daily, and the curves of weight changes for each group were drawn to evaluate the TNBS-induced colitis. Meanwhile, the death of mice in each group was recorded daily and the final survival rates of mice were calculated.

[8] = In vitro incubation with small intestine contents of rats; type: in vitro ADME; conditions: rat small intestine contents homogenate, pH 6.8, 37 °C, after 4 h of incubation
Description: as §1

[9] = Aqueous solubility (equilibrium, distilled water); type: physicochemical; conditions: 25 °C, thermodynamic from solid, 25 ± 2 °C, means ± SD, n = 3, read-out: S (aqueous solubility)
Description: The mixtures were placed in an ultrasonic water bath for 10 min and then shaken for 24 h to establish a saturation equilibrium. Upon filtration, the filtrate was diluted with an appropriate amount of water and the mixture was analyzed by HPLC, the concentration of each compound in its saturated solution was calculated.

[10] = no reference given; cited from earlier work

P (partition coefficient) [1] | logP at 24 h [1] | hydrolysis ratio after in vivo incubation in rat colons [4] [%] | residual content of prodrug in stomach contents [6] | residual content of prodrug in small intestine contents [8] [%] | solubility at 24 h [9] [mg/mL] | SMILES | GSH-Px activities in the colon [2] | MDA levels in the colon [2] | SOD activities in the colon [2] | DAI, compared with positive control [3] | MPO activity in colonic tissues ([5]; vs TNBS group, p < 0.01) | MPO activity, compared with positive control ([5]; vs positive control) | therapeutic effects on the TNBS-induced UC (overall) [7] | half-time (t1/2) [10] [min]
4.47 ± 0.21 | 0.65 ± 0.02 |  |  |  |  | Nc1ccc(O)c(C(=O)O)c1 [5-ASA, 5-aminosalicylic acid, reference compound] |  |  |  |  |  |  |  | 
1.45 ± 0.10 | 0.16 ± 0.03 | 6.79 | hardly hydrolyzed | 100 | 310 ± 50 (≈ 1390 mM) | CCCC(=O)Oc1ccc(N)cc1C(=O)O [5-ASB, 5-aminosalicylic acid butyrate] | increased | significantly decreased | increased | better effects than the positive control | significantly decreased | significantly better than the positive control | certain therapeutic effects | 
 |  |  |  |  |  | CCCC(=O)O [Butyrate] |  |  |  |  |  |  |  | 6
